{
  "source": "paper PMC3076737",
  "about": "(Journal of medicinal chemistry, 2010)",
  "key": {"CB1 receptor [1]": {"target": "T1, CB1 receptor (Homo sapiens, UniProt P21554)", "T1 sequence (P21554 whole entry)": "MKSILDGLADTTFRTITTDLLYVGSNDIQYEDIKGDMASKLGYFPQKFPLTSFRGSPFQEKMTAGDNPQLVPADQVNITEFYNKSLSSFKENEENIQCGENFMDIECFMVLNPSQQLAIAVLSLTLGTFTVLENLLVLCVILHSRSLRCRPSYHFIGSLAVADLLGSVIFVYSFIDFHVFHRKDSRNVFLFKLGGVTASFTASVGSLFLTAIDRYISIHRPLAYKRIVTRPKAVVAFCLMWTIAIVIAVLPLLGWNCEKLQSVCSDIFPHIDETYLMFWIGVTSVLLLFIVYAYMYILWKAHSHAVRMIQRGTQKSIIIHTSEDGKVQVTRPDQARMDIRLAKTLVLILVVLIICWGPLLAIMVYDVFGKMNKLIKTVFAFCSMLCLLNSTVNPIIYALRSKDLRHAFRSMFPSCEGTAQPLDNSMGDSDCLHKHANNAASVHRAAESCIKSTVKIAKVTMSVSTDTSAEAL", "assay": "GTP-γ-S assay of compounds 3 and 4, preparation not stated, data not shown", "format": "biochemical"}, "CB1 receptor [2]": {"target": "T1, CB1 receptor", "format": "binding", "conditions": "data not shown"}, "CB1 receptor [3]": {"target": "T1, CB1 receptor", "format": "cell-based", "conditions": "data not shown"}, "CB1 receptor [4]": {"target": "T1, CB1 receptor", "assay": "Competitive displacement binding vs [3H]CP55,940 in hCB1 membranes", "conditions": "both radioligands"}, "human CB2 receptor": {"target": "human CB2 receptor (Homo sapiens, UniProt P34972)", "sequence (P34972 whole entry)": "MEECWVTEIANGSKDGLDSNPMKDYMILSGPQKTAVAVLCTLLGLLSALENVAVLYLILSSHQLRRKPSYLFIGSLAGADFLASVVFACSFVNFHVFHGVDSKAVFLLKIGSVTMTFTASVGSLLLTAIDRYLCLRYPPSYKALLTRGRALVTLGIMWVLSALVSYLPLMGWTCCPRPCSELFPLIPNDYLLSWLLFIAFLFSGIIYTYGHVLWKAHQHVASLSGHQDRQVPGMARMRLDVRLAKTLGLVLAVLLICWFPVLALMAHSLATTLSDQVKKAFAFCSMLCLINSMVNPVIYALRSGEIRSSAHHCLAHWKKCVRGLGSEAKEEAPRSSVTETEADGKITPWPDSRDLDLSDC", "assay": "Competitive displacement binding vs [3H]CP55,940 in hCB2 membranes", "conditions": "read-out: Displacement vs. 3H-CP55,940: Ki (nM) in hCB2; Table 2"}},
  "data": [
    {"smiles": "Cc1c(C(=O)NCCOCCOCCOCCNC(=O)c2nn(-c3ccc(Cl)cc3Cl)c(-c3ccc(Cl)cc3)c2C)nn(-c2ccc(Cl)cc2Cl)c1-c1ccc(Cl)cc1", "note": "[Compound 3, 5-(4-chlorophenyl)-N-{13-[5-(4-chlorophenyl)-1-(2,4-dichlorophenyl)-4-methyl-1H-pyrazol-3-yl]-13-oxo-3,6,9-trioxa-12-azatridec-1-yl}-1-(2,4-dichlorophenyl)-4-methyl-1H-pyrazole-3-carboxamide]", "values": [
      {"measurement": "Activity in GTP-γ-S assay", "setting": "CB1 receptor [1]", "result": "inactive"},
      {"measurement": "Affinity in radiolabeled binding", "setting": "CB1 receptor [2]", "result": "low affinity"},
      {"measurement": "Activity in calcium assay", "setting": "CB1 receptor [3]", "result": "inactive"}
    ]},
    {"smiles": "Cc1c(C(=O)NCC(=O)NCC(=O)NCCN)nn(-c2ccc(Cl)cc2Cl)c1-c1ccc(Cl)cc1", "note": "[Compound 4, N-{[5-(4-chlorophenyl)-1-(2,4-dichlorophenyl)-4-methyl-1H-pyrazol-3-yl]carbonyl}glycyl-N-(2-aminoethyl)glycinamide]", "values": [
      {"measurement": "Activity in GTP-γ-S assay", "setting": "CB1 receptor [1]", "result": "inactive"},
      {"measurement": "Affinity in radiolabeled binding", "setting": "CB1 receptor [2]", "result": "low affinity"},
      {"measurement": "Activity in calcium assay", "setting": "CB1 receptor [3]", "result": "inactive"}
    ]},
    {"smiles": "Cc1c(C(=O)NCCCCCCCNCCCCCCCNC(=O)c2nn(-c3ccc(Cl)cc3Cl)c(-c3ccc(Cl)cc3)c2C)nn(-c2ccc(Cl)cc2Cl)c1-c1ccc(Cl)cc1", "note": "[Compound 5d, N,N′-(iminodiheptane-7,1-diyl)bis[5-(4-chlorophenyl)-1-(2,4-dichlorophenyl)-4-methyl-1H-pyrazole-3-carboxamide]]", "values": [
      {"measurement": "Affinity higher than the corresponding monovalent control (7d)", "setting": "CB1 receptor [4]", "result": "~4", "unit": "fold"}
    ]},
    {"smiles": "Cc1c(C(=O)NCCCCCCCCCN(C)CCCCCCCCCNC(=O)c2nn(-c3ccc(Cl)cc3Cl)c(-c3ccc(Cl)cc3)c2C)nn(-c2ccc(Cl)cc2Cl)c1-c1ccc(Cl)cc1", "note": "[Compound 6c, N,N′-[(methylimino)dinonane-9,1-diyl]bis[5-(4-chlorophenyl)-1-(2,4-dichlorophenyl)-4-methyl-1H-pyrazole-3-carboxamide]]", "values": [
      {"measurement": "Ki", "setting": "human CB2 receptor", "result": "> 2500", "unit": "nM"}
    ]},
    {"smiles": "Cc1c(C(=O)NCCCCCCCCCCCN(C)CCCCCCCCCCCNC(=O)c2nn(-c3ccc(Cl)cc3Cl)c(-c3ccc(Cl)cc3)c2C)nn(-c2ccc(Cl)cc2Cl)c1-c1ccc(Cl)cc1", "note": "[Compound 6d, N,N′-[(methylimino)diundecane-11,1-diyl]bis[5-(4-chlorophenyl)-1-(2,4-dichlorophenyl)-4-methyl-1H-pyrazole-3-carboxamide]]", "values": [
      {"measurement": "Ki", "setting": "human CB2 receptor", "result": "> 2500", "unit": "nM"}
    ]},
    {"smiles": "Cc1c(C(=O)NCCCCCN(C)CCCCCN)nn(-c2ccc(Cl)cc2Cl)c1-c1ccc(Cl)cc1", "note": "[Compound 8a, N-{5-[(5-aminopentyl)(methyl)amino]pentyl}-5-(4-chlorophenyl)-1-(2,4-dichlorophenyl)-4-methyl-1H-pyrazole-3-carboxamide]", "values": [
      {"measurement": "Ki", "setting": "human CB2 receptor", "result": "> 2500", "unit": "nM"}
    ]}
  ]
}
